The values below come from patent US20020039778A1, “Isolated and purified DNA molecule and protein for the degradation of triazine compounds” (Regents of the University of Minnesota, priority 1995, published 2002).

In data set [1] the target is T1, atrazine chlorohydrolase (AtzA) (Pseudomonas sp., UniProt P72156). As to the kind of experiment: Substrate range of purified AtzA in vitro. The format is biochemical, Pseudomonas sp. strain ADP. The settings on record: purified enzyme in vitro. On the set-up: made in house; host or cells: E. coli transformed with pMD4 (1.9-kb AvaI genomic fragment in pACYC184). As to the method: High performance liquid chromatography (HPLC) analysis was performed using a Hewlett-Packard HP 1090 Liquid Chromatograph system equipped with a photodiode array detector and interfaced to an HP 79994A Chemstation. […] Linear gradients of 0-6 minutes, 10-25% acetonitrile (ACN); 6-21 minutes, 25-65% ACN; 21-23 minutes, 65-100% ACN; and 23-25 minutes 100% ACN, were used. Spectral data of the column eluent was acquired between 200-400 nm (12 nm bandwidth per channel) at a sampling frequency of 640 milliseconds. Spectra were referenced against a signal at 550 nm.
T1 sequence (P72156 whole entry, the tested form may be a part): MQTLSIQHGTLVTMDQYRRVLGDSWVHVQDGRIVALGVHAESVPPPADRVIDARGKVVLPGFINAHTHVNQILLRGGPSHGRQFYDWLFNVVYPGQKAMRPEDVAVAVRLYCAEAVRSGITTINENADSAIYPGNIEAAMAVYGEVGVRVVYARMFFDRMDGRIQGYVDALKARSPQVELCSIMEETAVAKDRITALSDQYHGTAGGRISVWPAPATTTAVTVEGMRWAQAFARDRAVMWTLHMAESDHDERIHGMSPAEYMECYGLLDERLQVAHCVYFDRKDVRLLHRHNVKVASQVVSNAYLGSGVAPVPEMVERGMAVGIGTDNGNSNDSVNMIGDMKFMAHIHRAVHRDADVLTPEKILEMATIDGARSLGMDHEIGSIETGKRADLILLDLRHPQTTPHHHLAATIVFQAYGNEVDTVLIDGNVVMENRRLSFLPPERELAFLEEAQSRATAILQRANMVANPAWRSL
The solution was loaded onto a Mono Q HR 16/10 Column (Pharmacia LKB Biotechnology, Uppsala, Sweden). The column was washed with 25 mM MOPS buffer (pH 6.9), and the protein was eluted with a 0-0.5 M KCl gradient. Protein eluting from the column was monitored at 280 nm by using a Pharmacia U.V. protein detector. Pooled fractions containing the major peak were dialyzed overnight against 1 liter 25 mM MOPS buffer (pH 6.9). The dialyzed material was assayed for atrazine degradation ability by using HPLC analysis (see above) and analyzed for purity by sodium dodecyl sulfate (SDS) polyacrylamide gel electrophoreses (Laemlli).
The AtzA protein was examined for its ability to degrade various triazine compounds in vitro.

In the next data set the test system is CCNc1nc(Cl)nc(NC(C)C)n1. Briefly: purified protein, by the assay type. The settings on record: other: purified AtzA 50 μg/ml, 25 mM MOPS pH 6.9, room temperature.
Data set [2] relates to E. coli DH5α (pMD1 or pMD2). As to the kind of experiment: Effect of simple nitrogen sources on atrazine degradation (plate clearing). In kind it is cell-based, Escherichia coli. How it is done:
(§1) Analytical methods: plate assays, high performance liquid chromatography (HPLC), thin layer chromatography (TLC), and liquid-liquid partitioning analyses. Atrazine or hydroxyatrazine were incorporated in solid LB or minimal medium, as described in Mandelbaum et al., Appl. Environ. Microbiol., 61, 1451-1457 (1995), at a final concentration of 500 μg/ml to produce an opaque suspension of small particles in the clear agar. The degradation of atrazine or hydroxyatrazine by wild-type and recombinant bacteria was indicated by a zone of clearing surrounding colonies.

Data set [3] concerns Pseudomonas species strain ADP. The description is as above. In kind it is cell-based. The following applies: solid media with 500 ppm atrazine, 2 weeks of incubation at 28° C. or 37° C. How it is done: as §1
Data set [4] addresses T2, N-ethylammeline chlorohydrolase (TrzA) (Gordonia rubripertincta, UniProt Q52725).
T2 sequence (Q52725 1-477): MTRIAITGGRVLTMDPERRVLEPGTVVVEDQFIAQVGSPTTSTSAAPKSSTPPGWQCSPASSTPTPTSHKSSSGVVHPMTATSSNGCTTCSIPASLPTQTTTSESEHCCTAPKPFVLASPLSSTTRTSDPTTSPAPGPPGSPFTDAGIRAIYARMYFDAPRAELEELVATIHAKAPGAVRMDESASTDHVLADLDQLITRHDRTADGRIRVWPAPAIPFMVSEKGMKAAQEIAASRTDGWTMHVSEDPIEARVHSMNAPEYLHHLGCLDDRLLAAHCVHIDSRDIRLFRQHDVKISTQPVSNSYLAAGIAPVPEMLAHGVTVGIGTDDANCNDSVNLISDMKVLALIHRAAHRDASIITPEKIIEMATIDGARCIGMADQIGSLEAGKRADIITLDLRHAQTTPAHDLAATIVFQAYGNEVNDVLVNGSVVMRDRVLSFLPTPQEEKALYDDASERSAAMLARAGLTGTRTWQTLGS
The following applies: cited from earlier work.

For data set [5], the system named is B. japonicum strain USDA 123 (pMD1). As to the kind of experiment: Atrazine degradation by Bradyrhizobium japonicum carrying pMD1 (plate clearing, HPLC). In kind it is cell-based. As to the method: Atrazine degradation gene expressed in Bradyrhizobium japonicum. […] The pMD1 was transferred from E. coli DH5α (pMD1) to B. japonicum strains USDA 123 by conjugation. This was done by using helper plasmid pRK2073 and the triparental mating procedure of Leong et al., J. Bio. Chem, 257, 8724-8730 (1982). This was done using a modified patch mating technique. Equal quantities of E. coli DH5α (pMD1), […] and spread to the size of a nickel. The patch was incubated for 4 days at 28° C. and the resulting bacterial growth was removed from the pate, serially diluted in 0.85% NaCl plus 0.01% tween 80, and spread onto the surface of minimal AG plates (Ag without yeast extract) containing 60 μg/ml tetracycline. Plates were incubated for 2 weeks at 28° C. […] Atrazine degradation was verified by HPLC analysis. The identity of transconjugants was verified by using strain specific fluorescent antibodies prepared according to Schmidt et al., J. Bacteriol., 95, 1987-1992 (1968).

Data set [6] concerns the target T1, atrazine chlorohydrolase (AtzA). As to the kind of experiment: Enzyme kinetics of purified AtzA (HPLC).
Experimental: (§2) Enzyme Kinetics. […] The reactions were stopped by boiling the reaction tubes at specific times, the addition of 500 μl acetonitrile and rapid freezing at −80° C. Thawed samples were centrifuged at 14,000 rpm for 10 minutes, the supernatants were filtered through a 0.2 μM filter, and placed into crimp-seal HPLC vials. HPLC analysis was done as described above.
[7] abbreviates: protein concentration of 50 mg/liter.

Experimental for CCNc1nc(Cl)nc(NC(C)C)n1: as §2

Consider `CCNc1nc(Cl)nc(NC(C)(C)C)n1` [Tertbutylazine, 2-chloro-4-ethylamino-6-terbutylamino-s-triazine], for which the “Degradation of substrate by AtzA” value in data set [1] is listed as “not substrates”.
Take “atrazine chlorohydrolase (AtzA) (Pseudomonas sp. ADP)”: the Km (in general, the substrate concentration at which the rate is half of its maximum) with CCNc1nc(Cl)nc(NC(C)C)n1 came to 125 µM.
On to `Nc1nc(N)nc(N)n1` [Melamine, 2,4,6-triamino-s-triazine], for which the “Degradation of substrate by AtzA” value was “not substrates” in data set [1] and “does not degrade” in data set [1] (listed as melamine).
Take `Cl.N` [ammonium chloride]: the “tolerance for ammonium chloride with concomitant atrazine degradation, relative to wild-type” value in data set [2] (E. coli DH5α (pMD1 or pMD2) vs Pseudomonas strain ADP) is recorded as 40-80 fold. The “ammonium chloride concentration in whose presence atrazine degradation (clearing) was observed” value in data set [2] (solid media with 500 ppm atrazine) is not above 48 mM. For the same compound, in data set [3], the “ammonium chloride concentration sufficient to inhibit visible clearing of atrazine” value lay in the range of 0.6 to 1.2 mM.
For the compound `CCNc1nc(N)nc(Cl)n1` [Desisopropylatrazine, 2-chloro-4-ethylamino-6-amino-s-triazine], the “Degradation of substrate by TrzA” value in data set [4] is “ability to dechlorinate”. In data set [4] (reported for the related triazine hydrolase TrzA), the Km is 82 µM. In addition, in data set [1] (listed as deisopropylatrazine), the “Degradation of substrate by AtzA” value was “ability to dechlorinate”.
As to `CCNc1nc(Cl)nc(NCC)n1` [Simazine, 2-chloro-4,6-diethylamino-s-triazine], the “Degradation of substrate by TrzA” value in data set [4] is given as “does not degrade”.
Turning to `CCNc1nc(Cl)nc(NC(C)C)n1` [Atrazine, 2-chloro-4-ethylamino-6-isopropylamino-1,3,5-s-triazine], the “time to clear atrazine on plates” value in data set [5] (AG media plates containing up to 500 ppm atrazine) amounted to 10 days. The “atrazine in overnight culture broth by HPLC” value in data set [5] (supplied atrazine 33 ppm) is “no atrazine detectable”. Further, in data set [6] (setting [7]), the “time to degrade about 100 μM of atrazine to about 1 μM” value is listed as “about 1.35 hours” and the “time to degrade about 30 ppm of atrazine to about 3 ppb” value is listed as “about 2.6 hours”. Moreover, the Km in data set [6] (read-out: Km of AtzA for atrazine, purified AtzA 50 μg/ml, 25 mM MOPS pH 6.9, room temperature) is 125 µM. Also, the “Degradation of substrate by TrzA” value in data set [4] is listed as “does not degrade”.
